Measurements: patent US20250120924A1, “COMPOSITIONS OF TAURINE AND MALIC ACID AND METHODS OF MAKING THE COMPOSITIONS” (NutriScience Innovations LLC, priority 2023, published 2025)

System: Wild-type nematodes
Experiment: Nematode lifespan/survival in microfluidic chips
Format: in vivo
Settings: versus control, FIG. 4
Procedure: EXAMPLE 8—Animal Studies: A nematode animal model was used to evaluate lifespan/survival and energy/activity. Wild-type nematodes were loaded into microfluidic chips and were fed […] E. coli OP50 in NGM buffer food source. The methods have been previously described. Nematode lifespan was measured by survival at standard 18 days, while nematode activity was measured at an optimum 15 days using a visual score. Dosing of 2:1 taurine to malic acid molar ratio composition (composition #4, Example 1) was made using the methodology described previously was at 200 micrograms/ml/day, with the solid composition being dissolved in the aqueous feed. This is equivalent to a human dose of 5 grams per day for these animals. The 5 gram per day human dose equivalent represents a dose of 3.26 grams of taurine and 1.74 grams of malic acid (2:1 molar ratio). The results were compared with taurine alone (human equivalent dose 3.26 grams), and malic acid alone (1.74 grams malic acid).
Eighteen days is the typical survival time for nematodes. Eighteen days may be considered “old-age” for these animals. […] This unexpected synergistic effect has not been previously observed. […] Specific energy/activity levels of the neamtodes was measured at an optimum 15 days of life (which may be considered “middle-age”).

Row | Structure (SMILES) | nematode survival at 18 days (malic acid alone, human equivalent dose 1.74 grams) | nematode survival at 18 days (taurine alone, human equivalent dose 3.26 grams)
1 | O=C(O)CC(O)C(=O)O (centres unmarked) [malic acid] | did not improve survival times versus control | –
2 | NCCS(=O)(=O)O [taurine, 2-aminoethanesulfonic acid] | – | did not improve survival times versus control
